Measured values taken from patent US10005767B2, “Compositions and methods for inhibition of the JAK pathway” (Rigel Pharmaceuticals, Inc., priority 2009, dated 2018).

These compounds were tested on human primary T-cells, IL-2 stimulated proliferation (JAK-1 and JAK-3 dependent; reported as JAK3 activity) (assay: Human primary T-cell proliferation stimulated by IL-2 (Example 3)). Settings: Homo sapiens, T-cell, tested under conditions described in Example 3 (IL-2 stimulated human primary T-cell proliferation); read-out: ability to inhibit JAK3 activity, IC50 range (Table V).
Type: cell-based
Summary of the method: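 Peripheral-blood human T-cells pre-activated via TCR/CD28, IL-2-starved overnight, then cultured 72 h at 37 °C with compound in Yssel's medium containing IL-2 (80 U/mL in cell suspension). Proliferation read as viable-cell ATP by CellTiter-Glo luminescence; reduction versus control taken as JAK pathway inhibition.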
In the case of `Cc1cnc(Nc2ccc3c(c2)C(NC(C)C)CCCC3)nc1Nc1ccc2oc(=O)[nH]c2c1` (centres unmarked) [IV-12, 5-[2-(9-Isopropylamino-6,7,8,9-tetrahydro-5H-benzocyclohepten-2-ylamino)-5-methyl-pyrimidin-4-ylamino]-3H-benzooxazol-2-one], the IC50 is reported as < 500 nM. `Cc1ccc(Nc2ncc(C)c(Nc3ccc4oc(=O)[nH]c4c3)n2)c(F)c1` [Compound I-514, 5-(2-(2-fluoro-4-methylphenylamino)-5-methylpyrimidin-4-ylamino)benzo[d]oxazol-2(3H)-one] was tested, and the IC50 was < 500 nM. For `Cc1cnc(Nc2ccc(OCCC(C)C)cc2)nc1Nc1ccc2oc(=O)[nH]c2c1` [Compound I-197, 5-{5-Methyl-2-[4-(3-methyl-butoxy)-phenylamino]-pyrimidin-4-ylamino}-3H-benzooxazol-2-one], the IC50 was > 10000 nM. In the case of `Cc1cnc(Nc2ccc3[nH]ncc3c2)nc1Nc1ccc2oc(=O)[nH]c2c1` [IV-6, N4-(benzo[d]oxazol-2(3H)-on-5-yl)-N2-(1H-indazol-5-yl)-5-methylpyrimidine-2,4-diamine], the IC50 is reported as < 500 nM. `Cc1cnc(Nc2ccc(F)cc2)nc1Nc1ccc2oc(=O)[nH]c2c1` [Compound I-470, 5-[2-(4-Fluoro-phenylamino)-5-methyl-pyrimidin-4-ylamino]-3H-benzooxazol-2-one] was tested, and the IC50 was < 500 nM. In the case of `Cc1cnc(Nc2ccc3[nH]c(=O)[nH]c3c2)nc1Nc1ccc2oc(=O)[nH]c2c1` [IV-29, 5-(5-methyl-2-(2-oxo-2,3-dihydro-1H-benzo[d]imidazol-5-ylamino)pyrimidin-4-ylamino)benzo[d]oxazol-2(3H)-one], the IC50 is reported as < 500 nM. With `Cc1cnc(Nc2cc(Cl)cc(C#N)c2)nc1Nc1ccc2oc(=O)[nH]c2c1` [Compound I-187, 3-Chloro-5-[5-methyl-4-(2-oxo-2,3-dihydro-benzooxazol-5-ylamino)-pyrimidin-2-ylamino]-benzonitrile] the IC50 was < 500 nM. With `Cc1cnc(Nc2ccc(N3C[C@H]4C[C@@H]3CO4)nc2)nc1Nc1ccc2oc(=O)[nH]c2c1` [II-139, 5-methyl-N2-{2-[(1R,4R)-2-oxa-5-azabicyclo[2.2.1]heptan-5-yl]pyridin-5-yl}-N4-(2-oxo-2,3-dihydro-1,3-benzoxazol-5-yl)-2,4-pyrimidinediamine] the IC50 was < 500 nM. With `Cc1cnc(Nc2ccc(N3CCN(C(=O)OC(C)(C)C)[C@@H](C)C3)nc2)nc1Nc1ccc2oc(=O)[nH]c2c1` [II-41, (S)-2-Methyl-4-{5-[5-methyl-4-(2-oxo-2,3-dihydro-benzooxazol-5-ylamino)-pyrimidin-2-ylamino]-pyridin-2-yl}-piperazine-1-carboxylic acid tert-butyl ester] the IC50 was < 500 nM. In the case of `Cc1cnc(Nc2ccc(OC(F)(F)F)c(N3CCOCC3)c2)nc1Nc1ccc2oc(=O)[nH]c2c1` [Compound I-124, N4-(benzo[d]oxazolin-2(3H)-one-5-yl)-5-methyl-N2-[3-(morpholin-4-yl)-4-trifluoromethoxyphenyl]-2,4-pyrimidinediamine], the IC50 is reported as < 500 nM. With `Cc1cnc(Nc2cc(C)c(C)c(C)c2)nc1Nc1cc(C)c2oc(=O)[nH]c2c1` [Compound I-475, 7-methyl-5-(5-methyl-2-(3,4,5-trimethylphenylamino)pyrimidin-4-ylamino)benzo[d]oxazol-2(3H)-one] the IC50 was < 500 nM.

Same assay, conditions: tested under conditions described in Example 3 (IL-2 stimulated human primary T-cell proliferation); read-out: ability to inhibit JAK3 activity, IC50 range (Table V)
In the case of `Cc1cnc(Nc2ccc(S(N)(=O)=O)cc2)nc1Nc1ccc2[nH]c(=O)[nH]c2c1` [Compound I-12, N4-(benzimidazolin-2-on-5-yl)-N2-((4-aminosulfonyl)phenyl)-5-methylpyrimidine-2,4-diamine], the IC50 is reported as > 10000 nM. In the case of `Cc1cnc(Nc2ccc(N3CCN(C)CC3)c(C#N)c2)nc1Nc1ccc2oc(=O)[nH]c2c1` [Compound I-341, N2-[3-cyano-4-(4-methylpiperazino)]phenyl-5-methyl-N4-(2-oxo-2,3-dihydro-1,3-benzoxazol-5-yl)-2,4-pyrimidinediamine], the IC50 is reported as < 500 nM. `Cc1cnc(Nc2cnc(N3CCN4CCC[C@H]4C3)c(F)c2)nc1Nc1ccc2oc(=O)[nH]c2c1` [II-112, N4-(benzo[d]oxazolin-2(3H)-one-5-yl)-N2-{2-[(8S)-1,4-diazabicyclo[4.3.0]nonane-1-yl]-3-fluoropyridine-5-yl}-5-methyl-2,4-pyrimidinediamine] was tested, and the IC50 was < 500 nM.
